# Test results published in patent US20260166039A1 (SCHRÖDINGER, INC., priority 2022, published 2026).
# pIC50: −log10 of the molar value. Where two headings read alike, the source gives them in different places.
# Assays:
# [1] = system: phosphorylation of Cdc2 Y15 (Wee1 substrate) in A427 cells; assay: Phosphorylated Cdc2 MSD Electrochemiluminescence Assay; assay type: cell-based; settings: Homo sapiens
# Method: Phosphorylated Cdc2 MSD Electrochemiluminescence Assay
# The effect of Wee1 inhibitors on cellular phosphorylation of the Wee1 substrate Cdc2 was determined using the following protocol:
# A total of 40,000 A427 cells in 100 uL culture medium (1640 medium+10% Fetal bovine serum+1% Penicillin-Streptomycin) were plated in 96-well cell culture plates. 3-fold serial dilutions of test compounds were prepared in completed PBS at 25× final concentration. After 20 hours, the plates were removed and 4 μL of each were added to the cells and incubated with shaking for 30 minutes at 37° C., 5% CO2. Each concentration was tested in duplicate. After a total 6 hours incubation, plates were removed and centrifuged for 5 minutes and 100 uL of supernatant from each well was removed. Cells were washed with 200 μL PBS and lysed with 50 μL MSD lysis buffer (Meso Scale Diagnostics) supplied with 1× complete ULTRA cocktail inhibitor (Roche).
# To detect phosphorylation of Cdc2 Y15, 30 μL of capture antibody solution (CST catalog #9116S 1:200) was added into each well of the MSD plate (MSD catalog #L15XB-6), sealed and incubated at 4° C. with shaking (450 rpm) overnight. The antibody solution was removed, wells blocked with BSA solution and plates washed three times with PBST, followed by addition of 30 μl of cell lysate per well. After 2 hours of incubation, plates were washed three times with PBST. 30 μL of 1× detection antibody solution (CST catalog #4539S 1:200) was then added to each well and incubated for 1 hour. Plates were washed three times with PBST and 30 μL of 1× secondary antibody solution (MSD, catalog #:R32AB-1, 1:5000) was added to each well and incubated for 1 hour. Plates were washed three times with PBST and 150 μL of 1× Read Buffer T (MSD, catalog #R92TC-1) was added to each well of the MSD plate. The electrochemiluminescence signal was measured on a MESO SECTOR S600 plate reader. The percentage of remaining phosphorylated Cdc2 signal was calculated following the equation below.
# [formula] • HC (high control): Cells treated with DMSO • Cpds: Cells treated with test compounds • LC (low control): Cells treated with positive control Wee1 inhibitor
# Wee1 kinase domain = molecular target: T1, Wee1 kinase domain (Homo sapiens, UniProt P30291); assay: Wee1 Kinase Biochemical Assay (ADP-Glo); settings: 15 uM ATP
# T1 construct: Wee1 kinase domain was purchased from Carna (catalog #05-177); purchased Carna 05-177
# T1 sequence (P30291 299-569 limits assumed): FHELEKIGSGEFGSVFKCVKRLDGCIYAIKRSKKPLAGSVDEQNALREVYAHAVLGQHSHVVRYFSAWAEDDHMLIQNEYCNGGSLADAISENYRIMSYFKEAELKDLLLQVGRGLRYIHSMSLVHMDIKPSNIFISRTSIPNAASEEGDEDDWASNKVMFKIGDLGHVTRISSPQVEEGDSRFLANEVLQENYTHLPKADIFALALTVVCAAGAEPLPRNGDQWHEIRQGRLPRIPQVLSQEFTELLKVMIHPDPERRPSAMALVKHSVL
# Procedure, shortened: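 Carna Wee1 kinase domain at 1 nM, with 15 uM ATP and 2 ng/mL poly(Lys,Tyr 4:1) substrate in 40 mM Tris-HCl, 20 mM MgCl2, 0.1 mg/mL BSA, 2 mM DTT, run 4 h at 25° C. ADP formation read by ADP-Glo luminescence. Percent inhibition normalised to DMSO and saturating-inhibitor controls.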
# [2] = A-427, class symbols, read-out: A427 pCDC2 MSD IC50
# [3] = class symbols, 1 nM Wee1 enzyme, 4 hours at 25° C.
"pIC50 ([1]; A-427, pCDC2 MSD)","pIC50 (Wee1 kinase domain; Wee1 kinase domain, ADP-Glo)","pIC50 [1, 2]",pIC50 (Wee1 kinase domain; [3]),Compound
–,–,6.00 to 7.00,> 8.00,"CN1C[C@@H]2C[C@H]1CN2c1ccc(Nc2ncc3c(n2)N(c2cccc(C4(O)COC4)n2)[C@@H]2CC(C)(C)OC[C@]32C)cc1 (single isomer, unassigned) [Example 518]"
–,–,6.00 to 7.00,> 8.00,"CN=[S@](C)(=O)c1cccc(N2c3nc(Nc4ccc(N5CCN(C)CC5)cc4)ncc3[C@@]3(C)COC(C)(C)C[C@@H]23)n1 (single isomer, unassigned) [Example 766]"
–,–,6.00 to 7.00,> 8.00,"CN1CC[C@H](c2ccc(Nc3ncc4c(n3)N(c3cccc(N5CCOC5=O)n3)[C@@H]3CC(C)(C)OC[C@]43C)cc2)C1 (single isomer, unassigned) [Example 602]"
–,–,6.00 to 7.00,> 8.00,"CN1CC[C@@H](c2ccc(Nc3ncc4c(n3)N(c3cccc(N5CCCC5=O)n3)[C@@H]3CC(C)(C)OC[C@]43C)cc2)C1 [Example 642, 1-(6-((4bR,8aR)-4b,7,7-trimethyl-2-((4-((S)-1-methylpyrrolidin-3-yl)phenyl)amino)-46,7,8,8a-tetrahydropyrano[3′,4′:4,5]pyrrolo[2,3-d]pyrimidin-9(5H)-yl)pyridin-2-yl)pyrrolidin-2-one]"
–,–,6.00 to 7.00,> 8.00,"CN[C@@H](C)c1cccc(N2c3nc(Nc4ccc(N5CCOCC5)cc4)ncc3[C@@]3(C)COC(C)(C)C[C@@H]23)n1 (single isomer, unassigned) [Example 537]"
–,–,6.00 to 7.00,> 8.00,"CN1CCN(c2ccc(Nc3ncc4c(n3)N(c3ccccn3)[C@@H]3CC(C)(C)OC[C@]43C)cc2)CC1 (single isomer, unassigned) [Example 722]"
–,–,6.00 to 7.00,> 8.00,"CN1CCN(c2ccc(Nc3ncc4c(n3)N(c3cccc(N5C(=O)CCC5(C)C)n3)[C@@H]3CC(C)(C)OC[C@]43C)cc2)CC1 (single isomer, unassigned) [Example 729]"
–,–,6.00 to 7.00,> 8.00,"CN1C[C@@H]2CN(c3ccc(Nc4ncc5c(n4)N(c4cccc(N6CCOC6=O)n4)[C@@H]4CC(C)(C)OC[C@]54C)cc3)C[C@@H]2C1 [Example 692, 3-(6-((4bR,8aR)-4b,7,7-trimethyl-2-((4-((3aR,6aS)-5-methylhexahydropyrrolo[3,4-c]pyrrol-2(1H)-yl)phenyl)amino)-4b,7,8,8a-tetrahydropyrano[3′,4′:4,5]pyrrolo[2,3-d]pyrimidin-9(5H)-yl)pyridin-2-yl)oxazolidin-2-one]"
–,–,6.00 to 7.00,> 8.00,"CN1CCC(c2cccc(N3c4nc(Nc5ccc(N6CCOCC6)cc5)ncc4[C@@]4(C)COC(C)(C)C[C@@H]34)n2)CC1 (single isomer, unassigned) [Example 533]"
–,–,5.00 to 6.00,> 8.00,"CN1C[C@@H]2C[C@H]1CN2c1ccc(Nc2ncc3c(n2)N(c2cccc(P(C)(C)=O)n2)[C@@H]2CC(C)(C)OC[C@]32C)cc1 [Example 777, dimethyl(6-((4bR,8aR)-4b,7,7-trimethyl-2-((4-((1S,4S)-5-methyl-2,5-diazabicyclo[2.2.1]heptan-2-yl)phenyl)amino)-4b,7,8,8a-tetrahydropyrano[3′,4′:4,5]pyrrolo[2,3-d]pyrimidin-9(5H)-yl)pyridin-2-yl)phosphine oxide]"
–,–,> 7.00,> 8.00,"CC1(C)C[C@H]2N(c3cccc([C@@H]4COCCN4)n3)c3nc(Nc4ccc(N5CCOCC5)cc4)ncc3[C@@]2(C)CO1 [Example 734, (4bR,8aR)-4b,7,7-trimethyl-9-(6-((R)-morpholin-3-yl)pyridin-2-yl)-N-(4-morpholinophenyl)-4b,5,7,8,8a,9-hexahydropyrano[3′,4′:4,5]pyrrolo[2,3-d]pyrimidin-2-amine]"

# Second part, the compound before the results:
Compound,"pIC50 ([1]; A-427, pCDC2 MSD)","pIC50 (Wee1 kinase domain; Wee1 kinase domain, ADP-Glo)","pIC50 [1, 2]",pIC50 (Wee1 kinase domain; [3])
"CNCc1cccc(N2c3nc(Nc4ccc([C@@H]5CCC(=O)N5C)cc4)ncc3[C@@]3(C)COC(C)(C)C[C@@H]23)n1 (single isomer, unassigned) [Example 52]",> 7.00,> 8.00,–,–
"CN1CCC(c2cncc(Nc3ncc4c(n3)N(c3cccc(N=S(C)(C)=O)n3)[C@@H]3CC(C)(C)OC[C@]43C)c2)CC1 (single isomer, unassigned) [Example 485]",–,–,6.00 to 7.00,> 8.00
"CNCc1cccc(N2c3nc(Nc4ccc(C5CCOCC5)cc4)ncc3[C@@]3(C)COC(C)(C)C[C@@H]23)n1 (single isomer, unassigned) [Example 35]",6.00 to 7.00,> 8.00,–,–
"C[C@H]1COC(=O)N1c1cccc(N2c3nc(Nc4ccc(N5C[C@H]6C[C@@H]5CN6C)cc4)ncc3[C@@]3(C)COC(C)(C)C[C@@H]23)n1 (single isomer, unassigned) [Example 247]",6.00 to 7.00,> 8.00,–,–
"C[C@H]1COC(=O)N1c1cccc(N2c3nc(Nc4ccc(O[C@H]5CCN(C)C5)nc4)ncc3[C@@]3(C)COC(C)(C)C[C@@H]23)n1 (single isomer, unassigned) [Example 281]",6.00 to 7.00,> 8.00,–,–
"C[C@H]1COC(=O)N1c1cccc(N2c3nc(Nc4ccn(C)c(=O)c4)ncc3[C@@]3(C)COC(C)(C)C[C@@H]23)n1 (single isomer, unassigned) [Example 341]",6.00 to 7.00,> 8.00,–,–
"CC1(C)C[C@H]2N(c3cccc(N=S(C)(C)=O)n3)c3nc(Nc4ccn([C@H]5CCOC5)c(=O)c4)ncc3[C@@]2(C)CO1 (single isomer, unassigned) [Example 376]",6.00 to 7.00,> 8.00,–,–
"CC1(C)C[C@H]2N(c3cccc(N=S(C)(C)=O)n3)c3nc(Nc4ccn(C(F)F)c(=O)c4)ncc3[C@@]2(C)CO1 (single isomer, unassigned) [Example 374]",6.00 to 7.00,> 8.00,–,–
"C[C@H]1COC(=O)N1c1cccc(N2c3nc(Nc4ccc(N5C[C@H]6C[C@@H](C5)N6C)cc4)ncc3[C@@]3(C)COC(C)(C)C[C@@H]23)n1 (single isomer, unassigned) [Example 352]",6.00 to 7.00,> 8.00,–,–
"C[C@H]1COC(=O)N1c1cccc(N2c3nc(Nc4ccc(C5CNC5)cc4)ncc3[C@@]3(C)COC(C)(C)C[C@@H]23)n1 (single isomer, unassigned) [Example 310]",6.00 to 7.00,> 8.00,–,–
"C[C@H]1COC(=O)N1c1cccc(N2c3nc(Nc4ccn(C5CCN(C)CC5)c(=O)c4)ncc3[C@@]3(C)COC(C)(C)C[C@@H]23)n1 (single isomer, unassigned) [Example 273]",6.00 to 7.00,> 8.00,–,–
"CN1CCC[C@H]1c1ccc(Nc2ncc3c(n2)N(c2cccc(N=S(C)(C)=O)n2)[C@@H]2CC(C)(C)OC[C@]32C)cn1 (single isomer, unassigned) [Example 216]",6.00 to 7.00,> 8.00,–,–
"CN1CC[C@@H]2CN(c3ccc(Nc4ncc5c(n4)N(c4cccc(C(C)(C)O)n4)[C@@H]4CC(C)(C)OC[C@]54C)cc3)C[C@@H]21 (single isomer, unassigned) [Example 437]",–,–,6.00 to 7.00,> 8.00
"CC1(C)C[C@H]2N(c3cccc(N=S(C)(C)=O)n3)c3nc(Nc4cnccn4)ncc3[C@@]2(C)CO1 (single isomer, unassigned) [Example 366]",5.00 to 6.00,> 8.00,–,–
"CN1CC[C@@](C)(c2ccc(Nc3ncc4c(n3)N(c3cccc(N=S(C)(C)=O)n3)[C@@H]3CC(C)(C)OC[C@]43C)cc2)C1 (single isomer, unassigned) [Example 169]",> 7.00,> 8.00,–,–
"Cc1cc(Nc2ncc3c(n2)N(c2cccc(N4C(=O)OC[C@@H]4C)n2)[C@@H]2CC(C)(C)OC[C@]32C)ccc1O[C@@H]1CCNC1 (single isomer, unassigned) [Example 337]",6.00 to 7.00,> 8.00,–,–
"Cn1cc(Nc2ncc3c(n2)N(c2cccc(N=S(C)(C)=O)n2)[C@@H]2CC(C)(C)OC[C@]32C)ccc1=O (single isomer, unassigned) [Example 495]",–,–,5.00 to 6.00,> 8.00
"CNCc1cccc(N2c3nc(Nc4ccc(N5C(=O)CC[C@H]5C)cc4)ncc3[C@@]3(C)COC(C)(C)C[C@@H]23)n1 (single isomer, unassigned) [Example 30]",6.00 to 7.00,> 8.00,–,–
"CC1(C)C[C@H]2N(c3cccc(N=S(C)(C)=O)n3)c3nc(Nc4cnn(C(F)(F)F)c4)ncc3[C@@]2(C)CO1 (single isomer, unassigned) [Example 488]",–,–,6.00 to 7.00,> 8.00
